Results on three molecules are retold here after patent publication US8529872B2, “Seeds and markers for use in imaging” (Board of Regents, The University of Texas System, priority 2007, dated 2013).

The conditions of data set [1]: cited from earlier work.
Data set [2] in a line: Characterization of the C4 complex at 7 T. The settings on record: for T2*-2: second T2* measurement. Type of data set: physicochemical. On the set-up: T2 / T1 / T2* / T2*-2: unit not given here. Here is the method:
[…] Characteristic T1, T2, and T2* relaxation times of the preparations were measured at each concentration. T1 measurements were made using a fast spin-echo saturation-recovery sequence (TE=63 ms; TR=400 ms, 500 ms, 1000 ms, 1500 ms, 2500 ms, 500 ms; FOV=3.2 cm×3.2 cm; matrix=64×64; echo train length=12; slice thickness=1 mm). T2 measurements were made using a CPMG multi-spin-echo sequence (TE=n×15 ms, 1≦n≦24; TR=1100 ms). T2* measurements were made using a multi-gradient echo sequence (TE=1.5 ms+n×[…], 0≦n≦15; TR=500 ms, 4000 ms). The image matrix and slice prescription for all measurements were kept constant. The characteristic T1, T2, and T2* relaxation time constants of each compartment were measured using Paravision 4.0, and the relaxivities of the contrast agent were estimated by fitting measured data to the Solomon-Bloembergen-Morgan model using Matlab.

Data set [3] in a line: Viscosity of contrast agent solution (Brookfield viscometer). Type of data set: physicochemical. The following applies: room temperature. Here is the method:
Viscosity of contrast agent solution was measured at room temperature by using Brookfield digital viscometer DV-II.

Data set [4] in a line: Magnetic properties of contrast agent solutions by VSM. The data set is classed as physicochemical. As to the method:
The magnetic properties of contrast agent solutions were determined by VSM (Vibrating Sample Magnetometer) at room temperature and magnetic field up to 1.5 T.
FIG. 20a-20d show the magnetic properties of various aqua solutions of Co/glycine with concentration 1, 3, 5, 8 and 10%.

Data set [5] is described as follows: MR relaxation measurements of C4 complex at 3.0 T. The data set is classed as physicochemical. The settings on record: 3.0T; for T1 (ms) μ / T2 (ms) μ: 23° C. Here is the method: (§1) MR imaging measurements were performed on a 1.5 T clinical scanner (Excite HD, GEHT, Waukesha, Wis.) to characterize the relaxation properties of the new cobalt complex after each new modification of the C4 chemistry was made. Several iterations were performed before obtaining a stable sample. Additional measurements at 3.0 T (Excite HD, GEHT, Waukesha, Wis.) were made once the design of the C4 complex was stable. Each session or iteration (n=5) took approximately 2 hours to collect all the relaxation data.
Concentrations of the complex were prepared in 0.1%, 0.3%, 0.5%, 0.75% and 1.0% solutions provided by the UH group. Theses solutions were placed in a water bath and imaged at room temperature (23° C.). Experiments were performed to ascertain the spin-lattice relaxivity (R1), spin-spin relaxivity (R2) and true spin-spin relaxivity (R2*) at 1.5 T and 3 T using a volume knee coil to excite and receive the MR signal.
(§2) R1 measurements were performed using a spin-echo inversion recovery (SE-IR) sequence with parameters: Inversion Time (TI)={0.05, 0.1, 0.2, 0.3, 0.4, 0.5, 0.6, 0.7, 0.8, 0.9, 1.0, 1.2, 1.4, 1.6, 1.8, 2.0} sec, Pulse Repetition Time (TR)=5000, Time to Echo (TE)=10 ms, slice thickness=3 mm, acquisition matrix=256 (frequency)×128 (phase), receiver bandwidth (rBW)=±15 kHz and the number of excitations (NEX)=1.
(§3) R2 measurements were carried out using an SE sequence with parameters: TE={15, 20, 40, 60, 100, 150, 200, 250, 300 and 500 ms}, TR=5000 ms, slice thickness=3 mm, matrix size=256×128, rBW=±15 kHz and NEX=1.
(§4) The slopes of R1 and R2 curve versus concentration were used to determine the relaxivity (r1 and r2) in mM^−1 s^−1 as shown in the following tables. A weighted least-linear squares fitting routine was written in MATLAB to calculate the fit parameters accounting for the uncertainty as well as calculating the net uncertainty in the derived measurement. Note that in the final quantitative analysis, R2* measurements are excluded since the samples seemed to have interfering magnetic effects that could alter results.

A short description of data set [6]: MR relaxation measurements of C4 complex at 1.5 T. The data set is classed as physicochemical. The settings on record: for T1 (ms) μ / T2 (ms) μ: 1.5T, 23° C. As to the method:
as §1
[…] Theses solutions were placed in a water bath and imaged at room temperature (23° C.). Experiments were performed to ascertain the spin-lattice relaxivity (R1), spin-spin relaxivity (R2) and true spin-spin relaxivity (R2*) at 1.5 T and 3 T using a volume knee coil to excite and receive the MR signal.
as §2, §3, §4

A short description of data set [7]: Surface tension of contrast agents (Fisher 21 tensiometer). Type of data set: physicochemical. An excerpt:
The Fisher 21 tensiometer was used to measure surface tension of contrast agents with accuracy t within +/−0.25%.

Data set [8] is described as follows: pH of aqua solution of contrast agent. Type of data set: physicochemical. Here is the method:
For preparation of aqua solution of contrast agent, the as-synthesized cobalt/glycine crystallites were dissolved in distillated water (0.3-10 wt %) and stirred at the room temperature with a magnetic stir bar for 1 h and then sonicated for 30 min.
The value of pH varied from 2.6 to 6.5.

A short description of data set [9]: Temporal stability of R1 of the cobalt complex. The data set is classed as physicochemical. The settings on record: taken 54 days apart.
Data set [10] can be described thus: Octanol-water partition coefficient. Type of data set: physicochemical. Here is the method: […] The resulting biphasic solution was shaken vigorously for two hours at which point 400 μL of the octanol layer and 400 μL of the water layer were removed. The solvent from each sample was removed under reduced pressure and the mass of the compound in the octanol sample was divided by the mass of the compound in the water sample. This experiment was repeated in triplicate, and the results were averaged to give the Log (Poct/wat) values. All complexes were completely soluble in the mixture of octanol and water.

Data set [11] can be described thus: T1 relaxivity of Gd-chelated polymeric contrast agent at 1.5 T. The data set is classed as physicochemical. An excerpt: A Gd-chelated polymeric MRI contrast agent 20 (Gd Hydrogel) based on a biodegradable, biocompatible poly(L-glutamic acid) (L-PG) backbone was also synthesized and characterized. […] “Blooming” occurs with MR imaging when the contrast agent 20 is encapsulated by titanium and cannot be visualized due to the susceptibility artifacts
To characterize the contrast agents 20, they were filtrated and injected into the glass capillary tube with 4 mm in length and OD=0.8 mm, ID=0.5 mm with volume of 0.5-1 μL. Water-proton relaxivities were measured at variable temperature (278-335 K), and as a function of magnetic field (1.5 T, 3 T, 4.7 T, and 7 T). Slight differences between the relaxivities of these agents at different field strengths will require slightly different concentrations for optimal visibility at these field strengths. By pH dependency of the proton relaxivities we will evaluate the synthesized CAM for pH-responsive MRI contrast agent 20 applications. Although 4.7 T is not a field strength commonly associated with clinical MRI, it complements the data collected at more clinically relevant field strengths and helps to identify trends in agent relaxivity.

The mark [12] stands for this setting: 1.5 T (23° C.), De Bazelaire 2004.

Read-outs that look alike come from different tables or passages of the source.

With `CNC[C@H](O)[C@@H](O)[C@H](O)[C@H](O)CO.CNC[C@H](O)[C@@H](O)[C@H](O)[C@H](O)CO.O=C([O-])CN(CCN(CC(=O)[O-])CC(=O)O)CCN(CC(=O)[O-])CC(=O)O.[Gd+3]` [Magnevist], in data set [1] (setting [12]), the r2/r1 is 1.12±0.01, the “relaxivity r1” value is 4.68 ± 0.06 mM/s and the “relaxivity r2” value was 5.57 ± 0.07 mM/s. The relaxivity in data set [1] (1.5 T in phosphate-buffered saline, Unger 1999) was 4.1 mM⁻¹ s⁻¹. Further, the T1 relaxivity entry in data set [1] (7 T, for reference) is recorded as “approximately 5.3 (mM·s)^−1”.
As for (CoCl2)n(C2H5NO2)1-n [Example C4], the “R1 (T1 relaxivity estimate)” value in data set [2] is reported as “R1 = 0.0979”. In [2], the T1 relaxivity was determined as 0.0979 mM/s. Further, the “T2* relaxivity” value in data set [2] was approximately 0.618 mM/s. This molecule also had a T2 relaxivity in data set [2] of 0.502 mM/s. Also, the T1 amounted to 980.805 in data set [2] (8.25 mM); 524.66 in [2] (24.76 mM); 533.955 in data set [2] (41.27 mM); 160.45 in data set [2] (61.9 mM); 116.5 in data set [2] (82.53 mM). The T2 in [2] (8.25 mM) worked out at 74.85; in data set [2] (24.76 mM), 45.175; in [2] (41.27 mM), 31.14; in data set [2] (61.9 mM), 22.96; in data set [2] (82.53 mM), 20.84. The “T2*” value was 141.415 in data set [2] (8.25 mM); 50.42 in data set [2] (24.76 mM); 32.37 in data set [2] (41.27 mM); 24.85 in data set [2] (61.9 mM); 17.99 in data set [2] (82.53 mM). In addition, the “T2*-2” value in data set [2] (8.25 mM) was 146.68; in data set [2] (24.76 mM) it was 52.755; in [2] (41.27 mM) it was 34.135; in data set [2] (61.9 mM), 25.55; in [2] (82.53 mM) it was 17.64. Besides, the values for the Viscosity in [3] (contrast agent solution 0.5 %) and in data set [3] (contrast agent solution 5 %) were 1.0 cP and 1.1 cP, respectively. Also, the Magnetic properties entry in data set [4] (contrast agent solution 0.5 %) and in [4] (contrast agent solution 5 %) was “paramagnetic” each time. Further, the results for the “relaxivity r1, Slope μ” value in data set [5] and in data set [6] (1.5 T) were 0.070 mM⁻¹ s⁻¹ and 0.086 mM⁻¹ s⁻¹, respectively. Besides, the “T1 (ms) μ” value is recorded as 866.0 ms in data set [5] (0.10 % Wt, 8.25 mM); 432.0 ms in data set [5] (0.30 % Wt, 24.76 mM); 288.0 ms in [5] (0.50 % Wt, 41.27 mM); 202.0 ms in data set [5] (0.75 % Wt, 61.90 mM); 164.0 ms in data set [5] (1.00 % Wt, 82.53 mM); 782.0 ms in data set [6] (0.10 % Wt, 8.25 mM). The “T1 (ms) μ” value worked out at 379.0 ms in data set [6] (0.30 % Wt, 24.76 mM); 235.0 ms in data set [6] (0.50 % Wt, 41.27 mM); 172.0 ms in data set [6] (0.75 % Wt, 61.90 mM); 130.0 ms in data set [6] (1.00 % Wt, 82.53 mM). Moreover, the “T2 (ms) μ” value in [5] (0.10 % Wt, 8.25 mM) was determined as 530.0 ms; in [5] (0.30 % Wt, 24.76 mM) it was 215.0 ms; in [5] (0.50 % Wt, 41.27 mM), 124.0 ms; in [5] (0.75 % Wt, 61.90 mM), 104.0 ms; in [5] (1.00 % Wt, 82.53 mM) it was 105.0 ms; in data set [6] (0.10 % Wt, 8.25 mM) it was 836.0 ms. Moreover, the “T2 (ms) μ” value in [6] (0.30 % Wt, 24.76 mM) is recorded as 354.0 ms; in data set [6] (0.50 % Wt, 41.27 mM), 215.0 ms; in data set [6] (0.75 % Wt, 61.90 mM), 153.0 ms; in data set [6] (1.00 % Wt, 82.53 mM) it was 120.0 ms. The T1 relaxation time is 782 ms in data set [6] (0.1%-8.25 mM) and 61 ms in [6] (10%-825 mM). Further, the “relaxivity r1” value in [6] (1.5 T) was found to be 0.086 ± 0.006 mM/s. Further, the “relaxivity r2” value in [6] (1.5 T) was found to be 0.097 ± 0.010 mM/s. The Surface tension in [7] (contrast agent solution 0.5 %) came to 72.8 dynes/cm; in [7] (contrast agent solution 5 %), 73.6 dynes/cm. Further, the pH in data set [8] (contrast agent solution 0.5 %) was found to be 6.1; in data set [8] (contrast agent solution 5 %), 3.2. For the same molecule, the “degradation or breakdown over time: difference between two R1 measurements” value in [9] is on record as “no statistically significant difference was observed”. In addition, the “Partition Coefficient, Log P” value in data set [10] (contrast agent solution 0.5 %) is “(−0.15) −”; in data set [10] (contrast agent solution 5 %) it was “(−0.09)”.
Turning to L-PG-Bz-DTPA-Gd, in data set [11], the T1 relaxivity amounted to 25 mM⁻¹ s⁻¹ and the “T1 relaxivity, times greater than that of Gd-DTPA” value is listed as “more than 6 times”.
